Measured values taken from PMC5526551, “New hydrazonoindolin-2-ones: Synthesis, exploration of the possible anti-proliferative mechanism of action and encapsulation into PLGA microspheres” (PLoS ONE, 2017).
Where two headings read alike, the source gives them in different places.

How the values were obtained:
[1] = tested on: IEC-6, MCF-10A, Swiss 3t3 versus A-549; test: Tumor cell selectivity, non-tumor cell lines versus NSCLC cells; assay type: cell-based; details: for Mean tumor selectivity: mean IC50 in non-tumor cell lines versus NSCLC cells
Description: (§1) This assessment of the growth inhibitory activity of the compounds was tested in quadruplicate at a maximum concentration of 25 μM, followed by 10 serially diluted concentrations.
As indicated in Fig 7 and Table 4, compound 7e inhibited growth in both normal and tumor cell lines >50%.

[2] = tested on: IEC-6; test: Selectivity: growth inhibition in non-tumorigenic cell line; assay type: cell-based; details: Rattus norvegicus, 72 h, maximum 25 μM, read-out: IC50 Intestine IEC-6
Description: as §1
(§2) A549, IEC-6, MCF-10A and 3t3 cells were harvested from 90-95% confluent cultures in 10 cm dishes, and diluted in growth media recommended by the suppliers as follows: A549 cells were cultured in RPMI-1640 medium supplemented with 5% fetal bovine serum (FBS). IEC-6 cells were obtained from ATCC and cultured in Dulbecco’s modified Eagle’s medium (DMEM) supplemented with 10% FBS and 0.1 unit/mL recombinant insulin. Swiss 3t3 cells were obtained from ATCC and cultured in DMEM supplemented with 10% FBS. […]
(§3) At the end of the treatment period, assay plates were allowed to cool to RT for 10 min prior to addition of 25 µL per well Promega CellTiterGlo reagent, followed by an additional 10 min incubation at RT. The resulting luminescence was quantitated using a Molecular Devices Spectramax Paradigm.Percent growth inhibition was calculated using equation (1). The potency of compounds was determined using the non-linear dose response algorithm (four-parameter logistic fit) with GraphPad Prism 5 software.

[3] = tested on: Swiss 3t3 fibroblasts; test: as above; assay type: cell-based, mice; details: Mus musculus, 72 h, maximum 25 μM, read-out: IC50 Fibroblast Swiss 3t3
Description: as §1, §2, §3

[4] = tested on: phosphorylated Rb protein in A549 cells; test: Rb phosphorylation (immunofluorescent imaging); assay type: cell-based; details: Homo sapiens, read-out: IC50 for reduction in Rb phosphorylation
Description: Compound 7e was analyzed for effects on various aspects of cell cycle progression in human cancer cells. These studies were carried out using cells derived from lung adenocarcinoma (A549). This follow-up assessment of activity tested compounds used immunofluorescent imaging of phosphorylated Rb protein and the total DNA content of each cell to determine the cell cycle phase. The ability of the test compounds to affect the cell cycle and Rb phosphorylation was tested over a range of concentrations from less than 100 nM to 50 μM.
Fig 5 Dose-dependent changes in cell cycle. Distribution of cells within the cell cycle as well as total cell numbers were quantitated by fluorescent staining of nuclear DNA with DAPI. Phosphorylated Rb protein was detected by indirect immunofluorescence followed by automated image acquisition and analysis. […] All IC50 values are given under one unlabelled substance, with the y-axis title of each plot written in front as the measure.
A549 cells were harvested from a 90% confluent 10 cm dish and diluted in growth medium. An appropriate concentration of cells were prepared to add 5,000 cells in a volume of 100 µL per well in tissue culture treated PerkinElmer optical bottom ViewPlate microplates, then incubated overnight at 37°C. The following day, compound 7e and the positive control, sunitinib, were diluted in DMSO to concentrations 1000-fold above the maximum tested concentration.
Concentrated dosing solutions of twice the final concentration were prepared by dilution of the DMSO stocks 1:500 in growth media. Three-fold dilutions of each dosing medium were then prepared in medium containing 0.2% DMSO to maintain a constant concentration of vehicle throughout the concentration range of each compound. Each of these was added in equal volume (100 µL) to each well on the assay plate, along with the vehicle control. One plate of cells was incubated with the compounds for a further 24 h, and a separate plate was incubated with the compounds for 48 h.
At the end of the respective treatment periods, 150 µL per well of neutral buffered formalin fixative (10% paraformaldehyde) was rapidly added to each plate and incubated at room temperature for 20 min. […] Phosphorylated Rb protein (p-Rb) was detected by 1 h incubation with anti-p-Rb rabbit monoclonal antibody (Cell Signaling #8516) diluted 1:1600 in antibody dilution buffer (1% bovine serum albumin and 0.3% Triton X-100 in PBS). […] Anti-Phospho Ser807/811-Rb antibody (Cell Signalling cat #8516) was detected by 1 h incubation with goat anti-rabbit AlexaFluor 488 conjugate (InVitrogen cat #A-11008) diluted 1:500 in antibody dilution buffer. […] Fluorescent micrographs were analyzed using Molecular Devices MetaXpress multi-wavelength scoring image analysis program to quantitate Rb phosphorylation. […]

SMILES: O=C1Nc2ccc(Br)cc2C1=NN=C1C(=O)N(Cc2ccccc2)c2ccccc21 [Compound 7e, 1-Benzyl-3-((5-bromo-2-oxoindolin-3-ylidene)hydrazono)indolin-2-one]
- Mean tumor selectivity [1]: 1.7
- Growth inhibition in both normal and tumor cell lines ([1]; up to 25 μM): > 50%
- IC50 [2]: 3.72 µM
- IC50 [3]: 2.56 µM
- IC50 ([4]; A549, 24 h): 2.55 µM
- IC50 ([4]; A549, 48 h): 2.47 µM

SMILES: CCN(CC)CCNC(=O)c1c(C)[nH]c(/C=C2\C(=O)Nc3ccc(F)cc32)c1C [Sunitinib, sunitinib, reference compound]
- Mean tumor selectivity [1]: 1.4
- IC50 [2]: 4.56 µM
- IC50 [3]: 4.07 µM
- IC50 ([4]; A549, 24 h): 3.16 µM
- IC50 ([4]; A549, 48 h): 14 µM
